Structures can show the parent of a compound that is named as a salt.
Tested on: jejunum
Experiment: Transcriptional profiling on Affymetrix GeneChips, single dose, naïve mice: jejunum
Type: in vivo, C57BL/6 mice
Description: Treated mice were sacrificed at 2, 7, or 12 hours. Tissues (liver, spleen, kidney, jejunum, cortex, hippocampus, striatum and whole blood) were collected and analyzed by transcriptional profiling on mouse Affymetrix GeneChips.
Tissues (liver, spleen, kidney, jejunum, cortex, hippocampus, striatum and whole blood) were collected and analyzed by transcriptional profiling on mouse Affymetrix GeneChips.
Animals were exposed to CO2 and whole blood collected via cardiac puncture. Two 100 μl aliquots of whole blood were collected in 1.5 mL microcentrifuge tubes and snap frozen in liquid nitrogen. Peripheral (liver, spleen, kidney and jejunum) and CNS brain (cerebellum, hippocampus, striatum and cortex) tissues were harvested and snap frozen in liquid nitrogen, with special care taken to collect tissues of similar size and from the same location. All samples were stored at −80° C. until RNA extraction was conducted.
For RNA preparation, frozen tissues were placed in 2 mL RNAse-free 96-well blocks with 1.5 mL QIAzol Lysis Reagent (QIAgen) and a 3.2 mm stainless steel bead (BioSpec Products, Bartlesville, Okla.). Tissues were disrupted for four cycles of 45 seconds in a Mini-Beadbeater (Biospec Products). RNA was extracted in chloroform and the aqueous phase was mixed with an equal volume of 70% ethanol. Extracted RNA was applied to RNeasy 96 plates and purified by the spin method according to the manufacturer's protocol (RNeasy 96 Universal Tissue Protocol, QIAgen, Hilden Germany).
Automated sample amplifications and biotin labelings were carried out using the NuGEN Ovation RNA Amplification system V2 (Cat #3100), Ovation WB reagent (Cat #1300) and Encore Biotin module (Cat #4200) (NuGEN Technologies, Inc, San Carlos, Calif.) according to manufacturer's recommendations using an Arrayplex automated liquid handler (Beckman Coulter, Indianapolis, Ind.). Two micrograms of biotin labeled sscDNA probe were hybridized to Affymetrix GeneChip Affymetrix HT_MG-430_PM plate arrays with modified conditions as described in Allaire et al. Washing and staining of the hybridized arrays were completed as described in the GeneChip Expression analysis technical manual for HT plate arrays using the Genechip® Array Station (Affymetrix, Santa Clara, Calif.) with modifications as described in Allaire et al. The processed GeneChip® plate arrays were scanned using GeneTitan scanner (Affymetrix, Santa Clara, Calif.).
Affymetrix scans were subject to quality control (QC) measures. These tests included a visual inspection of the distribution of raw signal intensities and an assessment of RNA degradation, relative log expression (RLE), and normalized unsealed standard error (NUSE). All sample scans that passed these QC metrics were included in the analysis.
All CEL files were subjected to GC-content-based Robust Multi-array Average (GCRMA) normalization (version 2.20.0) (Irizarry R A, et al. Nucleic Acids Res 2003; 31:e15; Li C, et al. Genome Biol 2001; 2:[…]0032). Expression levels were log (base 2) transformed.
All calculations and analyses were carried out using R (version 2.11.1) and Bioconductor computational tools (Gentleman R. Springer Science+Business Media 2005).

## COC(=O)/C=C/C(=O)O [MMF, monomethyl fumarate]
100MMF-vs-Veh, 12 h
  FC Akr1c12 (1422000_PM_at): 1.52
  FC Akr1c13 (1418672_PM_at): 2.01
  FC Aldh1a7 (1418601_PM_at): 1.74
  FC Apob (1457554_PM_at): −1.54
  FC C030026M15Rik (1431418_PM_at): −1.81
  FC Dio1 (1417991_PM_at): −1.51
  FC Ephx1 (1422438_PM_at): 2.17
  FC Gss (1448273_PM_at): 1.57
  FC Gstm1 (1416416_PM_x_at): 3.70
  FC Gstm2 (1416411_PM_at): 2.20
  FC Kif1b (1451642_PM_at): −1.51
Jejunum
  Number of genes, DMF Only / MMF Only: 35
Jejunum, 2 hr
  6-Sep, septin 6 (1424181_PM_at) differential expression: 1.56
  Areg (1421134_PM_at) differential expression: 2.71
  Blvrb (1451386_PM_at) differential expression: 1.57
  Bmp2 (1423635_PM_at) differential expression: −1.55
  Cbr1 (1460196_PM_at) differential expression: 1.53
  Dnase2a (1430135_PM_at) differential expression: 1.79
  Dppa5a (1416552_PM_at) differential expression: 2.64
  Ereg (1419431_PM_at) differential expression: 2.00
  Ero1l (1419030_PM_at) differential expression: 1.90
  Esd (1441604_PM_at) differential expression: 1.52
  Figf (1438953_PM_at) differential expression: 1.63
  G6pd2 /// G6pdx (1422327_PM_s_at) differential expression: 1.74
  Gabarapl1 (1416418_PM_at) differential expression: 1.52
  Gclc (1424296_PM_at) differential expression: 3.99
  Gsr (1421816_PM_at) differential expression: 2.19
  Gss (1441931_PM_x_at) differential expression: 1.92
  Gsta3 (1423436_PM_at) differential expression: 3.64
  Gsta4 (1416368_PM_at) differential expression: 1.73
  Gstm1 (1416416_PM_x_at) differential expression: 2.38
  Hfe (1422645_PM_at) differential expression: 1.73
  Hmox1 (1448239_PM_at) differential expression: 1.81
  Htatip2 (1451814_PM_a_at) differential expression: 1.53
  Lpin2 (1452837_PM_at) differential expression: 1.61
  Lrp8 (1440882_PM_at) differential expression: 2.23
  Mafg (1448916_PM_at) differential expression: 1.95
  Nqo1 (1423627_PM_at) differential expression: 2.16
  Osgin1 (1424022_PM_at) differential expression: 1.98
  Pgm2 (1437240_PM_at) differential expression: 2.09
  Prr5l (1452834_PM_at) differential expression: −1.64
  Prss8 (1418320_PM_at) differential expression: 2.41
  Setd4 (1435405_PM_at) differential expression: 2.11
  Slc2a1 (1426600_PM_at) differential expression: 1.68
  Slc40a1 (1417061_PM_at) differential expression: 2.73
  Slc48a1 (1450410_PM_a_at) differential expression: 1.62
  Slfn2 (1450165_PM_at) differential expression: −1.82
  Sos1 (1421886_PM_at) differential expression: −1.57
  Srxn1 (1425351_PM_at) differential expression: 1.77
  St3gal6 (1449078_PM_at) differential expression: 1.52
  Tkt (1436605_PM_at) differential expression: 1.73
  Tnfaip3 (1433699_PM_at) differential expression: −1.67
  Tox3 (1436600_PM_at) differential expression: 1.81
  Ugt2b5 (1419622_PM_at) differential expression: 3.13
Jejunum, 7 hr
  Abcc2 (1450109_PM_s_at) differential expression: 1.51
  Abcc3 (1428988_PM_at) differential expression: 2.26
  Acsm5 (1437662_PM_at) differential expression: 1.71
  Akr1c12 /// Akr1c13 (1450455_PM_s_at) differential expression: 1.58
  Akr1c13 (1418672_PM_at) differential expression: 1.86
  Aldh1a7 (1418601_PM_at) differential expression: 1.86
  Areg (1421134_PM_at) differential expression: 2.93
  Asns (1451095_PM_at) differential expression: 1.60
  Blvrb (1451386_PM_at) differential expression: 1.55
  Capn13 (1437960_PM_at) differential expression: −1.75
  Cbr1 (1460196_PM_at) differential expression: 1.83
  Ces1e (1419510_PM_at) differential expression: 2.44
  Ddc (1426215_PM_at) differential expression: 2.03
  Dppa5a (1416552_PM_at) differential expression: 1.88
  Enkur (1428960_PM_at) differential expression: −1.56
  Entpd5 (1433763_PM_at) differential expression: 1.60
  Esd (1441604_PM_at) differential expression: 2.15
  Fam162a (1451385_PM_at) differential expression: 1.67
  G6pd2 /// G6pdx (1422327_PM_s_at) differential expression: 2.06
  G6pdx (1448354_PM_at) differential expression: 1.76
  Gclc (1424296_PM_at) differential expression: 2.87
  Gm3776 /// Gsta1 /// Gsta2 (1421041_PM_s_at) differential expression: 1.90
  Gm14446 (1435529_PM_at) differential expression: −1.65
  Gpx2 (1449279_PM_at) differential expression: 1.53
  Gsr (1421816_PM_at) differential expression: 3.13
  Gss (1441931_PM_x_at) differential expression: 2.20
  Gsta3 (1423436_PM_at) differential expression: 5.71
  Gsta4 (1416368_PM_at) differential expression: 2.52
  Gstm1 (1416416_PM_x_at) differential expression: 4.80
  Gstm2 (1416411_PM_at) differential expression: 2.09
  Gstm4 (1424835_PM_at) differential expression: 5.75
  Gstm6 (1422072_PM_a_at) differential expression: 2.23
